Marks after values point to notes of the source that are not given here.
Details: pH 2.3

| Log P | SMILES |
| --- | --- |
| 3.32^[c]; 3.32^[b] | CCOC(=O)C(C#N)=C(Nc1ccccc1SC)c1cccnc1OC [Compound 522] |
| 3.52 | CCOC(=O)C(C#N)=C(Nc1ccccc1OC(F)(F)F)c1cccnc1Cl [Compound 529] |

Same assay, conditions: pH 2.7

| SMILES | Log P |
| --- | --- |
| CCOC(=O)C(C#N)=C(Nc1ccccc1SC)c1ncc(Cl)cc1Cl [Compound 503] | 4.09^[a] |
| COC(=O)C(C#N)=C(Nc1cccc(SC)c1)c1sc(C)nc1C(F)(F)F [Compound 504] | 3.53^[a] |
| CCOC(=O)C(C#N)=C(Nc1cccc(SC)c1)c1sc(C)nc1C(F)(F)F [Compound 505] | 3.89^[a] |
| CCOC(=O)C(C#N)=C(NC1(c2c(F)cccc2F)CC1)c1cn(C)nc1OC [Compound 508] | 3.02^[a] |
| COC(=O)C(C#N)=C(Nc1ccc(OC(F)F)cc1)c1sc(C)nc1C(F)(F)F [Compound 515] | 3.31^[a] |
| COC(=O)C(C#N)=C(Nc1ccc(Cl)cc1)c1sc(C)nc1C(F)(F)F [Compound 517] | 3.55^[a] |
| CCOC(=O)C(C#N)=C(Nc1ccccc1OC(C)C)c1sc(C)nc1C(F)(F)F [Compound 519] | 4.36^[a] |
| CCOC(=O)C(C#N)=C(Nc1ccc(SC)cc1)c1ccsc1Br [Compound 524] | 4.01^[a] |
| CCOC(=O)C(C#N)=C(Nc1ccc(OC)cc1)c1ccsc1Br [Compound 525] | 3.6^[a] |
| CCOC(=O)C(C#N)=C(Nc1ccccc1SC)c1sc(Cl)nc1Cl [Compound 527] | 4.14^[a] |
| CCOC(=O)C(C#N)=C(NC1(c2c(F)cccc2F)CC1)c1sc(Cl)nc1Cl [Compound 528] | 4.14^[a] |
| CCOC(=O)C(C#N)=C(NC1(c2c(F)cccc2F)CC1)c1cn(C)nc1C(F)(F)F [Compound 530] | 3.48^[a] |
| CCOC(=O)C(C#N)=C(NCc1ccccc1SC)c1ccsc1Br [Compound 535] | 4.01^[a] |
| CCOC(=O)C(C#N)=C(Nc1ccc(C(C)C)cc1)c1ccsc1Br [Compound 536] | 4.78^[a] |
| CCOC(=O)C(C#N)=C(Nc1cccc(SC)c1)c1ccsc1Br [Compound 537] | 4.04^[a] |
| CCOC(=O)C(C#N)=C(Nc1ccc(N(C)C)cc1)c1ccsc1Br [Compound 540] | 3.76^[a] |
| CCOC(=O)C(C#N)=C(NC1(c2c(F)cccc2F)CC1)c1cccnc1Cl [Compound 543] | 3.39^[a] |

Other lines, results leading:

| Log P | SMILES |
| --- | --- |
| 3.06^[a] | CCOC(=O)C(C#N)=C(Nc1ccccc1SC)c1cn(C)nc1OC [Compound 507] |
| 3.21^[a] | CCOC(=O)C(C#N)=C(Nc1ccc2ncsc2c1)c1sccc1C(F)(F)F [Compound 509] |
| 4.14^[a] | CCOC(=O)C(C#N)=C(Nc1ccc(Cl)cc1)c1sccc1C(F)(F)F [Compound 510] |
| 4.14 | CCOC(=O)C(C#N)=C(Nc1cccc(Cl)c1)c1sccc1C(F)(F)F [Compound 511] |
| 3.92^[a] | CCOC(=O)C(C#N)=C(Nc1ccc(Cl)cc1)c1sc(C)nc1C(F)(F)F [Compound 512] |
| 3.89^[a] | CCOC(=O)C(C#N)=C(Nc1cccc(Cl)c1)c1sc(C)nc1C(F)(F)F [Compound 513] |
| 3.96^[a] | COC(=O)C(C#N)=C(Nc1ccccc1OC(C)C)c1sc(C)nc1C(F)(F)F [Compound 514] |
| 3.53^[a] | COC(=O)C(C#N)=C(Nc1ccc(SC)cc1)c1sc(C)nc1C(F)(F)F [Compound 516] |
| 3.53^[a] | COC(=O)C(C#N)=C(Nc1cccc(Cl)c1)c1sc(C)nc1C(F)(F)F [Compound 518] |
| 4.46^[a] | CCOC(=O)C(C#N)=C(Nc1ccccc1OC(C)C)c1ccsc1Br [Compound 523] |
| 3.73^[a] | CCOC(=O)C(C#N)=C(Nc1ccc(OC(F)F)cc1)c1ccsc1Br [Compound 532] |
| 3.11^[a] | CCOC(=O)C(C#N)=C(Nc1ccc2ncsc2c1)c1ccsc1Br [Compound 533] |
| 4.11^[a] | CCOC(=O)C(C#N)=C(Nc1ccc(Cl)cc1)c1ccsc1Br [Compound 534] |
| 4.09^[a] | CCOC(=O)C(C#N)=C(Nc1cccc(Cl)c1)c1ccsc1Br [Compound 539] |

Same assay, conditions: pH 7.5

| Log P | SMILES |
| --- | --- |
| 3.32^[c]; 3.32^[b] | CCOC(=O)C(C#N)=C(Nc1ccccc1SC)c1cccnc1OC [Compound 522] |
| 3.46 | CCOC(=O)C(C#N)=C(Nc1ccccc1OC(F)(F)F)c1cccnc1Cl [Compound 529] |
